Assays:
[1] = system: IL-10 expression in nerve cell; assay: Immunofluorescence staining of IL-10 in nerve cells and microglia/macrophages after spinal cord injury; format: in vivo, rat; conditions: tail vein injection; one day after spinal cord injury
Procedure: (§1) For the present experiment, male white mice (Sprague-Dawley 240-250 g, 7 weeks, 10 mice) were under general anesthetics by an intraperitoneal injection of Ketamin (80 mg/kg, Yuhan Corporation) and Rompun (7.4 mg/kg, Bayer Korea Corporation). Laminectomy was performed at spine T9-10 level to expose a spinal cord keeping intact dura. And then, rat was put on Spinal cord dropping device (NYU); spine processes at T8 and T11 sites were fixed by using a clamp, respectively; then, a rod (diameter 2 mm, weight 10 g) was dropped from 25 mm height vertical to dorsal part of spinal cord followed by suturing injury site muscle and skin. The rat of Sham-operated control group was performed only laminectomy at same area without damaging spinal cord injury (marked by ‘sham” in figures; hereinafter, the same as above).
(§2) Substance P (marked by ‘SP’ in figures; hereinafter, the same as above) dissolved in saline of 5 nmol/kg concentration was injected through tail vein at immediately, 24 hours, and 48 hours after a spinal cord injury for experimental groups. At sham control group, same volume of saline (marked by ‘vehicle’ in figures; hereinafter, the same as above) without Substance P was injected at same time points. Operation were performed on an electric heating pad of 37° C., and then rat were transferred to cage after awake from the anesthetic. • (2) Preparation of Tissue […]

[2] = system: TNF-α, IL-1β, IL-6, iNOS, IL-10 mRNA at spinal cord injury site; assay: RT-PCR analysis of cytokine mRNA in injured spinal cord; format: in vivo, rat; conditions: 5 nmol/kg tail vein
Procedure: as §1
(§3) Substance P (marked by ‘SP’ in figures; hereinafter, the same as above) dissolved in saline of 5 nmol/kg concentration was injected through tail vein at immediately, 24 hours, and 48 hours after a spinal cord injury for experimental groups. At sham control group, same volume of saline (marked by ‘vehicle’ in figures; hereinafter, the same as above) without Substance P was injected at same time points. Operation were performed on an electric heating pad of 37° C., and then rat were transferred to cage after awake from the anesthetic. • (2) Preparation of Tissue
Substance P (5 nmol/kg in saline) or saline (the same volume without Substance P) was injected through tail vein at various time points at immediately, 1 d, 2d after operation as (1) of Example 1. At 1 hour, 6 hours, 1 day, 3 days, and 5 days, the experimental group (6 rats/group) and the control (6 rats/group) were sacrificed, respectively. After exposing a spinal cord by laminectomy, spin cord with a length of 1 cm, the injury site between T9-10 as the central, was quickly cut off, and immediately put into liquid nitrogen. Total RNA was extracted by using Trizol reagent (Invitrogen), and the cDNA was synthesized through Reverse transcription process. Then, PCR (Chromagen) was performed using primers of TNF-α IL-1β iNOS. Primer's sequences and PCR conditions were as follows.

[3] = system: cytokines at spinal cord injury site; assay: Rat cytokine antibody array analysis of spinal cord tissue; format: in vivo; conditions: tail vein injection
Procedure: as §1, §3
A rat cytokine antibody array analysis was performed in order to investigate an effect of Substance P in expressing cytokine.
At immediately, 1 d, and 2d, Substance P or saline (the same volume without Substance P) was injected through tail vein using the same method as (1) of Example 1. After operating, the experimental group (4 rats/group) and the control (4 rats/group) were sacrificed at 1 d and 5d, respectively. The spinal cord tissue (1 cm) obtained from an animal was homogenized with a dissolution buffer solution (10% glycerol, 20 mM Tris [pH 8.0], 137 mM NaCl, 1% Nonidet P-40, 0.5 mM EDTA, 10 mM Na2P2O7, 10 mM NaF, 1 μg/ml aprotinin, 10 μg/ml leupeptin, 1 mM vanadate and 1 mM PMSF). A protein amount of supernatant was determined by BCA assay (Pierce). Subsequently, a cytokine assay was performed according to instructions of Ray Biotech Morcross GA protocol. A membrane was blocked with a blocking buffer solution, then 150 μg of a protein sample was added, and reacted for 2 hours at a room temperature. The membrane was washed and 1 ml of primary antibody conjugated with a biotin was added, and placed at 4° C. overnight. Next day, the membrane was washed, and reacted with 2 ml of streptoavidin conjugated with horseradish peroxidase for 30 minutes at a room temperature. The membrane was developed using enhanced chemiluminescence-type solution, and the film was exposed to Radiography. Using USA NIH Image and Image J software (Hong et al., 2009), density quantification of array was performed.

[4] = system: apoptosis of nerve cells and oligodendrocytes; assay: TUNEL staining of apoptosis at spinal cord injury site; format: in vivo, rat; conditions: tail vein injection
Procedure: as §1, §2

[5] = 1 hour after spinal cord injury, vs control
[6] = one day after spinal cord injury
[7] = five days after spinal cord injury, vs control

Substance P
IL-10 expression in cells [1]: specifically expressed at a nerve cell
expression of IL-1β mRNA [2, 5]: slightly decreased
expression of IL-6 mRNA [2, 5]: slightly decreased
expression of TNF-α mRNA [2, 5]: slightly decreased
expression of iNOS mRNA [2, 5]: slightly decreased
increase of expression of IL-10 mRNA ([2]; 6 hours after spinal cord injury, vs control): at least 17 times
expression of iNOS [2, 6]: surely decreased
expressions of inflammatory cytokines (TNF-α, IL-1β, IL-6, iNOS mRNAs) ([2]; other times than 1 hour, between two groups): do not have a difference
expression of IL-10 mRNA ([2]; up to 3 day after spinal cord injury, vs control): persist increasing level
amount of IL-10 ([3]; 5 d after spinal cord injury): higher than the control
expression of IFN-γ [3, 7]: slightly decreased
expression of IL-1α [3, 7]: slightly decreased
amount of IL-6 [3, 6]: meaningfully increased
increase of amount of IL-4 [3, 6]: two times
increase of amount of IL-10 [3, 6]: ten times
apoptosis of oligodendrocytes ([4]; five days after damaging): significantly decreased
apoptosis of nerve cells ([4]; one day after damaging): decreased
